Several values for one entry are separate records, joined by “and”; a condition that tells them apart may be missing. Equal values may be shown once.
Legend:
Format in all cases: cell-based
[1] = target: T1, vasopressin-2 receptor (AVP2R) (Homo sapiens, UniProt P30518); experiment: AVP2R cAMP HTRF accumulation assay; conditions: for AVP2R PAM (cAMP) Score (activity score = normalized Emax × pEC50): PAM format; for EC50 / Emax: PAM format with vasopressin, original hits: agonist and PAM data combined, average ± SD
T1 construct: expressed in transfected cells; host or cells: CHO-K1 (PAM format); HEK-293 (agonist format)
T1 sequence (P30518 whole entry): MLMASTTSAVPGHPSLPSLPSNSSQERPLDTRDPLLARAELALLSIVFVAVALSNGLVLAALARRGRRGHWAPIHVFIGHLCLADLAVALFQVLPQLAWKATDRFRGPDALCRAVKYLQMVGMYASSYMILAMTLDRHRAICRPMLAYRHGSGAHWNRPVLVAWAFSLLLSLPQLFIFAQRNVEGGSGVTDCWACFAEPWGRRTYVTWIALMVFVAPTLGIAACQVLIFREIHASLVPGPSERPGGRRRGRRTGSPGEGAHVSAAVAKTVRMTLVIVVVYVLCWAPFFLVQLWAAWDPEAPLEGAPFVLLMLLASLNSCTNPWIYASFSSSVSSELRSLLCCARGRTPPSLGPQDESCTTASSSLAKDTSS
Description: Possible off-target biological effects. […] Here, we tested them at the vasopressin-2 receptor (AVP2R), representing a class A GPCR structurally related to CCK1R, which is coupled to Gs. The activity at AVP2R was tested using AVP2R-overexpressing CHO-K1 (PAM format) or HEK-293 (agonist format) cells, stimulating the cells with vasopressin. Original hits were tested in both agonist and PAM formats. Since all recognized compound responses were present in both formats, we continued to screen analogs in only the PAM format (also able to capture agonist effects) in CHO-K1 AVP2R cells for potential enhanced sensitivity. The dose–response data sets for original hits were combined, as the PAM and agonist effects were indistinguishable. In brief, arginine vasopressin (AVP) orthosteric stimulator dilutions and ligand and compound dose–response titrations in DMSO were transferred onto a 1536-well plate (Corning #3725) using an Echo liquid handler (Labcyte). Thawed cryopreserved cell stocks were diluted in stimulation buffer consisting of HBSS (Hank’s Balanced Salt Solution with Ca^2+ and Mg^2+, Gibco #24020117), 5 mM HEPES (hydroxyethyl piperazineethanesulfonic acid), 0.5 mM IBMX (3-isobutyl-1-methylxanthine, Sigma-Aldrich), and 0.075% BSA (7.5% DTPA-purified bovine serum albumin, PerkinElmer). The resulting cell suspension was added to the microplate and incubated with test compounds at room temperature for 30 min. Then, the detection reagents from the Cisbio cAMP Gs Dynamic HTRF detection kit were added. The plate was kept at room temperature for 30 min and read on a PHERAstar FSX microplate reader. Dose–response curves were performed as 16-point 2-fold dilutions in duplicate in at least two independent experiments.

CCK1R [2] = target: T2, CCK1R (Homo sapiens, UniProt P32238); experiment: IP-One accumulation TR-FRET assay, PAM format, HEK-293 CCK1R cells; parameters: expressed in transfected cells; host or cells: HEK-293; conditions: for Emax: HEK293, relative to CCK control; for Emax / CCK1R PAM (IP-One) Score (activity score = normalized Emax × pEC50) / EC50: HEK-293 CCK1R cells; for Emax / CCK1R PAM (IP-One) Score (activity score = normalized Emax × pEC50): PAM format; for Emax / EC50: average ± SD; for EC50: PAM format with EC20 CCK; for CCK1R IP-One activity (in words): PAM and agonist formats
T2 sequence (P32238 1-428): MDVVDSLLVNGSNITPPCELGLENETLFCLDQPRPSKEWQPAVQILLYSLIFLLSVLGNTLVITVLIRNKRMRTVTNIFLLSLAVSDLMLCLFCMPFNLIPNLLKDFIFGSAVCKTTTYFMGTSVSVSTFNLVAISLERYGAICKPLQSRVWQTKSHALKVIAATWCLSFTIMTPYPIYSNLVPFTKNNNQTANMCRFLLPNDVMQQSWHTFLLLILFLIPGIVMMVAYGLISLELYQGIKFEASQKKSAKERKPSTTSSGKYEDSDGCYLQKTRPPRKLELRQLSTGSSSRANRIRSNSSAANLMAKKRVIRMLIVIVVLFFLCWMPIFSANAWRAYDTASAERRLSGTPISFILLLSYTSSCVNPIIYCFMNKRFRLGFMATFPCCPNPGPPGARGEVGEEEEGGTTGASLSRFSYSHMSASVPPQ
Description: (§1) For structure–activity relationship studies, we performed myo-inositol-1-phosphate (IP-One) accumulation assays with TR-FRET technology applied to the HEK-293 cell line overexpressing CCK1Rs, as we had described in our high throughput screening effort. In brief, thawed cryopreserved cell stocks were re-suspended in IP-One assay media consisting of phenol-red free DMEM (Corning, Corning, NY, USA, #17-205-CV) with 10% FBS, 1% penicillin (10,000 units)/streptomycin (10 mg) (Pen/Strep, Thermo Fisher Scientific, Waltham, MA, USA, Gibco #15140122), and 1% L-glutamine (200 mM) (Gibco #25030081) and diluted to required cell densities. Then, the cell suspension was dispensed into a 1536-well tissue culture microplate (Corning, #3727), and the plate was incubated overnight at 37 °C and 5% CO^2. After 16–20 h, DMSO or compounds were added with an Echo liquid handler (Labcyte, San Jose, CA, USA), resulting in a top final compound concentration of 50 µM diluted 2-fold for 16-point dose–responses. For the positive allosteric modulator (PAM) format, orthosteric stimulator (CCK) dilutions for control wells were prepared in assay media containing 150 mM lithium chloride (LiCl, 50 mM final, Sigma-Aldrich, St Louis, MO, USA, #L7026). After a 30 min incubation of test compounds at 37 °C and 5% CO2, orthosteric stimulator dilutions (for PAM format) or equivalent dilutions of DMSO (for agonist format) were added to designated wells using BioRaptr (Beckman Coulter, Brea, CA, USA). In addition, CCK control ligand dilutions were included on each test plate. After that, the plate was incubated for 1 h at 37 °C and 5% CO^2 and equilibrated to room temperature. Detection reagents from the IP-One Gq detection kit from Cisbio (Cisbio US Inc., Bedford, MA, USA, #62IPAPEJ) were added, and after 1 h at RT, IP-One content was measured with a PHERAstar FSX microplate reader (BMG Labtech, Ortenberg, Germany). Control ligand dose–responses were analyzed using GraphPad Prism 9.3.1 (San Diego, CA, USA) to validate adequate control and test well concentrations for positive allosteric modulation (PAM) and agonist formats. Dose–response curves were performed as 16-point 2-fold dilutions in duplicates in at least three independent experiments. Large data sets were uploaded and analyzed with CBIS (Chemical and Biology Information System software, ChemInnovation Software, Inc., San Diego, CA, USA). Further data analysis for detailed SAR studies was conducted using the D360 software (Certara).
(§2) The potency and efficacy data for these compounds were used to calculate their activity scores using the following formula: Activity Score = normalized Emax × pEC50. Normalized Emax represents the efficacy of the compound as a fractional response relative to that of the CCK control ligand. pEC50 represents the positive logarithmic value of compound EC50 concentrations in (M).

CCK1R [3] = target: T2, CCK1R; experiment: IP-One accumulation TR-FRET assay, agonist format, HEK-293 CCK1R cells; parameters: expressed in transfected cells; host or cells: HEK-293; conditions: for Emax: HEK293, relative to CCK control, read-out: CCK1R Ago (IP-One) Emax
Description: as §1, §2

| AVP2R PAM (cAMP) Score (activity score = normalized Emax × pEC50) ([1]; CHO-K1 AVP2R cells) | EC50 ([1]; CHO-K1 AVP2R cells) | Emax ([1]; CHO-K1 AVP2R cells) | Emax (CCK1R [2]) | CCK1R PAM (IP-One) Score (activity score = normalized Emax × pEC50) (CCK1R [2]) | EC50 (CCK1R [2]) | CCK1R Ago (IP-One) Score (activity score = normalized Emax × pEC50) (CCK1R [3]) | Emax (CCK1R [3]; average ± SD) | EC50 (CCK1R [3]; average ± SD, read-out: CCK1R Ago (IP-One) EC50) | Log(Rmax/R50) (CCK1R [2]; CCK1R IP-One PAM assay) | Compound | CCK1R IP-One activity (in words) (CCK1R [2]) | Emax ([1]; CHO-K1, CHO-K1 AVP2R cells) |
| --- | --- | --- | --- | --- | --- | --- | --- | --- | --- | --- | --- | --- |
| 2.0 and 1.99 | 11.8 ± 14 µM | 40 ± 17% | 43 ± 21% | 2.0 and 1.96 | 12.7 ± 5.5 µM | 0 |  |  |  | CCCc1nc2sc3c(NCCCN(C)C)ncnc3c2c2c1CCCC2 [CMP-18] |  |  |
| 1.46 | 37.9 ± 7 µM | 33 ± 13% | 0% | 0 |  | 0 | 0% |  |  | O=C(O)CSc1ncnc2c1sc1nc(N3CCOCC3)c3c(c12)CCCC3 [CMP-45] | displayed no effects |  |
| 2.9 and 2.92 | 2.7 ± 0.7 µM | 52 ± 4% | 39 ± 11% | 1.9 and 1.87 | 12.2 ± 4.6 µM | 2.76 | 60 ± 4.5% | 26.9 ± 1.1 µM |  | NCCNc1ncnc2c1sc1nc(N3CCCCC3)c3c(c12)CCCC3 [CMP-22] |  |  |
| 2.13 | 7.8 ± 4 µM | 42 ± 17% | 34 ± 13% | 1.50 | 29 ± 13.1 µM | 0 |  |  |  | CC(C)Cc1nc2sc3c(NCCN4CCOCC4)ncnc3c2c2c1CCCC2 [CMP-34] |  |  |
| 0 |  | 0% | 0% | 0 |  | 0 | 0% |  |  | CCCCNc1ncnc2c1sc1nc(N3CCOCC3)c3c(c12)CCCC3 [CMP-48] | None of these analogs showed any CCK1R activity |  |
| 0 |  | 0% |  |  |  | 0 | 0% |  |  | c1nc(N2CCCC2)c2sc3nc(N4CCOCC4)c4c(c3c2n1)CCCC4 [CMP-64] | significantly diminished responses |  |
| 0 |  | 0% | 0% | 0 |  | 0 | 0% |  |  | COCCNc1ncnc2c1sc1nc(N3CCOCC3)c3c(c12)CCCC3 [CMP-47] | None of these analogs showed any CCK1R activity |  |
| 0 |  | 0% | 20 ± 7.6% | 1.0 and 1.01 | 7.6 ± 3.3 µM | 0 | 0% |  | 4.4 | CCCc1nc2sc3c(SC)ncnc3c2c2c1CCCC2 [CMP-38] |  |  |
| 2.97 | 7.3 ± 3.3 µM | 58 ± 15% | 43 ± 3% | 2.04 | 17.8 ± 6.2 µM | 0 |  |  |  | CC(C)Cc1nc2oc3c(N4CCNCC4)ncnc3c2c2c1CCCC2 [CMP-15] |  |  |
| 0 |  | 0% | 0% | 0 |  | 0 | 0% |  |  | NNc1ncnc2c1sc1nc(N3CCOCC3)c3c(c12)CCCC3 [CMP-51] | significantly diminished responses |  |

| Compound | AVP2R PAM (cAMP) Score (activity score = normalized Emax × pEC50) ([1]; CHO-K1 AVP2R cells) | EC50 ([1]; CHO-K1 AVP2R cells) | Emax ([1]; CHO-K1 AVP2R cells) | Emax (CCK1R [2]) | CCK1R PAM (IP-One) Score (activity score = normalized Emax × pEC50) (CCK1R [2]) | EC50 (CCK1R [2]) | CCK1R Ago (IP-One) Score (activity score = normalized Emax × pEC50) (CCK1R [3]) | Emax (CCK1R [3]; average ± SD) | EC50 (CCK1R [3]; average ± SD, read-out: CCK1R Ago (IP-One) EC50) | Log(Rmax/R50) (CCK1R [2]; CCK1R IP-One PAM assay) | CCK1R IP-One activity (in words) (CCK1R [2]) | Emax ([1]; CHO-K1, CHO-K1 AVP2R cells) |
| --- | --- | --- | --- | --- | --- | --- | --- | --- | --- | --- | --- | --- |
| OCCNc1ncnc2c1sc1nc(N3CCOCC3)c3c(c12)CCCC3 [CMP-49] | 0 |  |  | 0% | 0 |  | 0 | 0% |  |  | None of these analogs showed any CCK1R activity | 0% |

— PMC9964746, “Mechanism of Action and Structure–Activity Relationships of Tetracyclic Small Molecules Acting as Universal Positive Allosteric Modulators of the Cholecystokinin Receptor” (Membranes, 2023)
